The target in the test is T1, OGG1 in HL60 cells (Homo sapiens, UniProt O15527).
T1 construct: endogenous in cells; host or cells: HL60
The test is described as follows: Cellular thermal shift assay (CETSA). Format: cell-based. How it is done:
CETSA experiments were carried out with intact HL60 cells treated in culture. Cells were seeded at a density of 350 000 cells/mL and treated with DMSO (0.01%, v/v) or 20 µM test compound for 2 h at 37 °C and 5% CO2 in a humidified incubator. Cells were washed once in 1x TBS (50 mM Tris-HCl, pH 7.6, 150 mM NaCl), resuspended in 1x TBS supplemented with protease inhibitors (Roche), and then divided into 30-µL aliquots corresponding to approximately 600,000 cells per sample in PCR strip tubes. Cells were heated in a Veriti Thermal Cycler (Applied Biosystems) for 3 min at indicated temperatures (temperature interval consisting of 2 °C increases, starting from 40 °C up to 62 °C) and cooled for 5 min at room temperature to allow precipitation of denatured proteins. 5x NP-40 buffer was added to the samples and cells were lysed by performing three freeze–thaw cycles at −80 °C for 3 min and at 37 °C for 3 min with gentle vortexing between the cycles. Cell lysates were then centrifuged at 17,000 g and 4 °C for 30 min to remove cellular debris and insoluble proteins. Supernatant was prepared for western blot analysis according to standard procedures. […]

The structures appear in SMILES notation.

T1 sequence (O15527 whole entry): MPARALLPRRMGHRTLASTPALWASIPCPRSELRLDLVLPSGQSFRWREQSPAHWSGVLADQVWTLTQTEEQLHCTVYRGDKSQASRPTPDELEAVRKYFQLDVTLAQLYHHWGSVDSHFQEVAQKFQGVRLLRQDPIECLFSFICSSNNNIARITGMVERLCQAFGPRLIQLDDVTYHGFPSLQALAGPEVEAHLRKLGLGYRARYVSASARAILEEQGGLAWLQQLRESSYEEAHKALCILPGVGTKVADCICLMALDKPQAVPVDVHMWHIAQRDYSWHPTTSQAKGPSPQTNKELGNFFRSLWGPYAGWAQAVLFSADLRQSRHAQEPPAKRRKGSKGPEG

Regarding `Cc1nc(-c2cc(F)c(CC(=O)Nc3noc4c3CCCC4)c(F)c2)c(C)[nH]1` [compound 23], the “thermal stabilization of OGG1 in cells (CETSA)” value is “strong thermal stabilization”.
